Earlier results, collected in patent US20040157932A1, “Supplements and foods comprising oleylethanolamide” (Natural ASA,, priority 2002, published 2004).
One block for each molecule: values may come before it.

What was measured:
[1] = tested on: FAAH
[2] = tested on: cannabinoid receptors
[3] = rats
[4] = tested on: rat mammary tumorigenesis; conditions: administration of CLA
[5] = tested on: human melanoma, colorectal and breast cancer cells; conditions: in vitro
[6] = tested on: CD-4 and CD-8 lymphocyte subpopulations; white blood cells
[7] = diet with 0.5 percent CLA
[8] = CLA in animal feed, birds and mammals

Molecule: CCCCCCC(C)OC(=O)CC(=O)CBr (stereo not shown) [2-octyl y-gamma.-bromoacetoacetate]
- FAAH inhibition [1]: potent

- activation of cannabinoid receptors [2]: does not activate
- effect on the nervous system ([3]; in contrast to currently available weight loss drugs): not effecting the nervous system
Molecule: CCCCCCCC/C=C\CCCCCCCC(=O)NCCO [OEA, oleylethanolamide]
- desire for food ([3]; OEA in diet): reduced desire for food
- weight gain ([3]; OEA in diet): decreased weight gain

Molecule: conjugated linoleic acid [CLA]
- rat mammary tumorigenesis [4]: inhibits
- cytotoxicity against human melanoma, colorectal and breast cancer cells [5]: strong cytotoxic agent
- preserving white blood cells ([6]; CLA in concentrations of about 0.1 to 1.0 percent): effective adjuvant
- CD-4 and CD-8 lymphocyte subpopulations ([6]; oral or parenteral administration, free acid or salt form): elevation
- body weight [7]: no increase
- fat content ([7]; pigs, mice, humans): significant drop
- protein mass ([7]; pigs, mice, humans): concomitant increase
- efficiency of feed conversion [8]: increased the efficiency of feed conversion
